In patent US11479555B2, “Substituted 1,2-dihydro-3H-pyrazolo[3,4-D]pyrimidin-3-ones as inhibitors of WEE-1 kinase” (Newave Pharmaceutical Inc., priority 2018, dated 2022):
pEC50, pIC50: −log10 of the molar value. Each block holds one molecule with its values, some of them ahead of it.

Key:
SK-MES-1 = assay: In vitro cellular anti-proliferation assay (ATPlite), SK-MES-1; type: cell-based; conditions: Homo sapiens, about 72 hours, 5% FBS
Description: (§1) Cell antiproliferation was assayed by PerkinElmer ATPlite™ Luminescence Assay System. Briefly, the various test cancer cell lines were plated at a density of about 1×10^4 cells per well in Costar 96-well plates, and were incubated with different concentrations of compounds for about 72 hours in medium supplemented with 5% FBS. One lyophilized substrate solution vial was then reconstituted by adding 5 mL of substrate buffer solution, and was agitated gently until the solution was homogeneous. About 50 μL of mammalian cell lysis solution was added to 100 μL of cell suspension per well of a microplate, and the plate was shaken for about five minutes in an orbital shaker at ˜700 rpm. This procedure was used to lyse the cells and to stabilize the ATP. Next, 50 μL substrate solution was added to the wells and microplate was shaken for five minutes in an orbital shaker at ˜700 rpm. Finally, the luminescence was measured by a PerkinElmer TopCount® Microplate Scintillation Counter. Such assays, carried out with a range of doses of test compounds, allowed the determination of the cellular anti-antiproliferative IC50 of the compounds of the present invention.
(§2) The following table lists the LoVo IC50 values of another study for certain compounds of the invention.

A498 = assay: In vitro cellular anti-proliferation assay (ATPlite), A498; type: cell-based; conditions: Homo sapiens, about 72 hours, 5% FBS
Description: as §1, §2

Wee1 kinase = Wee1 kinase (Homo sapiens (Human), UniProt P30291); assay: Wee-1 biochemical assay; conditions: another study
Description: In determination of the Weel kinase activity, a synthetic peptide, Poly(Lys,Tyr) Hydrobromide (Lys:Tyr (4:1)) bought from Sigma was used as the substrate. The amount of the reaction mixture was 21.1 μL; and the composition of the reaction buffer was 50 mM Tris-HCl buffer (pH 7.4)/10 mM magnesium chloride/1 mM dithiothreitol. The purified Weel kinase, 2.5 μg of the substrate peptide, 10 μM of non-labeled adenosine triphosphate (ATP) and 1 μCi of [γ-^33P]-labeled ATP (2500 Ci/mmol or more) were added to it, and incubated at 30° C. for 30 minutes. Next, 10 μL of 350 mM phosphate buffer was added to the reaction mixture to stop the reaction. The substrate peptide was adsorbed by a P81 paper filter 96-well plate, then washed a few times with 130 mM phosphate buffer, and its radioactivity was counted with a liquid scintillation counter. The [γ-^33P]-labeled ATP was bought from Amersham Bioscience. To add the test compound to the reaction system, the compound was diluted with dimethylsulfoxide (DMSO) to prepare a series of dilutions. 1.1 μL of each dilution was added to the reaction system. As a control, 1.1 μL of DMSO was added to the reaction system. Such assays, carried out with a range of doses of test compounds, allow the determination of the Wee1 IC50 of the compounds of the present invention

Mice CNS PK study = type: in vivo; conditions: CD-1 mouse; for AUC(0-t): plasma, read-out: Plasma AUClast; for Kp: brain/plasma (printed as Brain/Blood), read-out: Brain/Blood Ratio
Description: The pharmacokinetics of compounds were evaluated in CD-1 mouse via Intravenous and Oral Administration. The iv dose was administered as a slow bolus in the Jugular vein, and oral doses were administered by gavage. The formulation for IV dosing is 5% DMSO in “20% HPBCD in water, and the PO formulation is 2.5% DMSO, 10% EtOH, 20% Cremphor EL, 67.5% D5W. The PK time point for the IV arm is 5, 15, 30 min, 1, 2, 4, 6, 8, 12, 24 hours post dose, and for PO arm is 15, 30 min, 1, 2, 4, 6, 8, 12, 24 hours post dose.
Plasma Samples Processing and Storage: Approximately 0.2 mL blood will be collected at each time point. Keep blood at room temperature and collect plasma within 15 min by centrifugation at 4000 g for 5 minutes in a 4° C. centrifuge. Plasma samples will be stored in polypropylene tubes. The plasma samples will be stored in a freezer at −75±15° C. prior to analysis.
Brain Samples Processing and Storage: The mice will be fully exsanguinated prior to tissue collection. Procedure: open chest cavity, cut ventricle and perform a gentle iv saline flush (saline flush volume ˜10 ml) with the animal placed head down at a 45 degree angle to facilitate blood removal. Tissue samples will be collected at adopted time point, quick frozen in ice box and kept at −75±15° C. All tissue samples will be weighted and homogenized with water by tissue weight (g) to water volume (mL) at ratio 1:3 before analysis. The actual concentration is the detected value multiplied by the dilution factor.
Concentrations of compounds in the plasma samples will be analyzed using a LC-MS/MS method. WinNonlin (Phoenix™, version 6.1) or other similar software will be used for pharmacokinetic calculations. The following pharmacokinetic parameters will be calculated, whenever possible from the plasma concentration versus time data: IV administration: C0, CL, Vd, T1/2, AUCinf, AUClast, MRT, Number of Points for Regression; PO administration: Cmax, Tmax, T1/2, AUCinf, AUClast, F %, Number of Points for Regression. The pharmacokinetic data will be described using descriptive statistics such as mean, standard deviation. Additional pharmacokinetic or statistical analysis may be performed at the discretion of the contributing scientist, and will be documented in the data summary.

LoVo = assay: In vitro cellular anti-proliferation assay (ATPlite), LoVo; type: cell-based; conditions: Homo sapiens, about 72 hours, 5% FBS
Description: as §1, §2

tumor = assay: In vivo xenograft study; design: species or system CB.17 SCID mice; conditions: 7 dose at 100 mg/kg, day 18
Excerpt: The CB.17 SCID mice are obtained at age 6-8 weeks from vendors and acclimated for a minimum 7-day period. The cancer cells are then implanted into the […] mice. Depending on the specific tumor type, tumors are typically detectable about two weeks following implantation. When tumor sizes reach ˜100-200 mm^3, the animals with appreciable tumor size and shape are randomly assigned into groups of 8 mice each, including one vehicle control group and treatment groups. Dosing varies depending on the purpose and length of each study, which typically proceeds for about 3-4 weeks. Tumor sizes and body weight are typically measured three times per week. In addition to the determination of tumor size changes, the last tumor measurement is used to generate the tumor size change ratio (T/C value), a standard metric developed by the National Cancer Institute for xenograft tumor evaluation. […] When tumor regression occurred (ΔT<0), however, the following formula is used: % T/T0=100×ΔT/T0.

WEE1 = conditions: inhibits WEE1 activity, induces DNA damage and G2 checkpoint escape; read-out: EC50 in cell based assays; cited from earlier work

Wee1 kinase, sequence (P30291 whole entry): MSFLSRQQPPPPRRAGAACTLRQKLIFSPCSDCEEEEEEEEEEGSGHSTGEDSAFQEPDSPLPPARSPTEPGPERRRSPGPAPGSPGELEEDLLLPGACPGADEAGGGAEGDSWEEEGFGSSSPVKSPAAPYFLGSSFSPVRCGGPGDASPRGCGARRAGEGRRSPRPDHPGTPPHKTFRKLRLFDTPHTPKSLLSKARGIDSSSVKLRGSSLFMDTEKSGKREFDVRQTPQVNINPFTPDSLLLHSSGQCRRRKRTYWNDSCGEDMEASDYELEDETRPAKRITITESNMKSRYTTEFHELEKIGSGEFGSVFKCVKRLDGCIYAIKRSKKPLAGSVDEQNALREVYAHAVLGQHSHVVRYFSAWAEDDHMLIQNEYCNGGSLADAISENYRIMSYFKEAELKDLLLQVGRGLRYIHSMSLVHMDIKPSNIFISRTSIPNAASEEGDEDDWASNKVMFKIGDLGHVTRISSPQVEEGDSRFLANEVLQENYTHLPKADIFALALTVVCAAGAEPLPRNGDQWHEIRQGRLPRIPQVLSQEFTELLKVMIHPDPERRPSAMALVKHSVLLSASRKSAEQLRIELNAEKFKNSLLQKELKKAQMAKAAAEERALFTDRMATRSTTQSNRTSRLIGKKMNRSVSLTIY

SMILES: CC(C)n1c(=O)c2cnc(Nc3ccc(N4CCN(C)CC4)cc3)nc2n1-c1cccc(C2CC2)n1 [Example 15, 1-(6-cyclopropylpyridin-2-yl)-2-isopropyl-6-((4-(4-methylpiperazin-1-yl)phenyl)amino)-1,2-dihydro-3H-pyrazolo[3,4-d]pyrimidin-3-one]
pIC50 (SK-MES-1): > 6.60
pIC50 (A498): > 6.30
pIC50 (Wee1 kinase): > 8.82
Brain AUClast (Mice CNS PK study): 4,910 h*ng/mL
AUC(0-t) (Mice CNS PK study): 4710 ng·h/mL
Kp (Mice CNS PK study): 1
pIC50 (LoVo): > 6.52

SMILES: CC(C)n1c(=O)c2cnc(Nc3ccc(N4CCN(C)CC4)cc3)nc2n1-c1cccc(C(C)(C)C(F)(F)F)n1 [Example 11, 2-isopropyl-6-((4-(4-methylpiperazin-1-yl)phenyl)amino)-1-(6-(1,1,1-trifluoro-2-methylpropan-2-yl)pyridin-2-yl)-1,2-dihydro-3H-pyrazolo[3,4-d]pyrimidin-3-one]
pIC50 (SK-MES-1): > 6.60
pIC50 (A498): > 6.30
pIC50 (Wee1 kinase): > 8.82
Brain AUClast (Mice CNS PK study): 12,002 h*ng/mL
AUC(0-t) (Mice CNS PK study): 7510 ng·h/mL
Kp (Mice CNS PK study): 1.6
pIC50 (LoVo): > 6.52

SMILES: CC(C)n1c(=O)c2cnc(Nc3ccc(N4CCN(C)CC4)cc3)nc2n1-c1cccc(C(C)(C)F)n1 [Example 13, 1-(6-(2-fluoropropan-2-yl)pyridin-2-yl)-2-isopropyl-6-((4-(4-methylpiperazin-1-yl)phenyl)amino)-1,2-dihydro-3H-pyrazolo[3,4-d]pyrimidin-3-one]
pIC50 (SK-MES-1): > 6.60
pIC50 (A498): > 6.30
pIC50 (Wee1 kinase): > 8.82
Brain AUClast (Mice CNS PK study): 11,907 h*ng/mL
AUC(0-t) (Mice CNS PK study): 8660 ng·h/mL
Kp (Mice CNS PK study): 1.38
pIC50 (LoVo): > 6.52

SMILES: C=CCn1c(=O)c2cnc(Nc3cnn(C4CCN(C5CCC(F)(F)CC5)CC4)c3)nc2n1-c1cccc(C(C)(C)O)n1.Cl [Example 3, 6-([1-[1-(4,4-difluorocyclohexyl)piperidin-4-yl]-1H-pyrazol-4-yl]amino)-1-[6-(2-hydroxypropan-2-yl)pyridin-2-yl]-2-(prop-2-en-1-yl)-1H,2H,3H-pyrazolo[3,4-d]pyrimidin-3-one Hydrochloride]
tumor regression (tumor): complete regression of the tumor

pIC50 (SK-MES-1): > 6.60
Brain AUClast (Mice CNS PK study): 524 ng·h/mL
AUC(0-t) (Mice CNS PK study): 9000 ng·h/mL
Kp (Mice CNS PK study): 0.058
pIC50 (LoVo): > 6.52
SMILES: C=CCn1c(=O)c2cnc(Nc3ccc(N4CCN(C)CC4)cc3)nc2n1-c1cccc(C(C)(C)O)n1 [AZD1775, reference compound]
pIC50 (A498): > 6.30
